Assay results reported in US10072005B2, “4-azaindole derivatives” (EISAI R&D MANAGEMENT CO., LTD., priority 2013, dated 2018).

Molecular target: mAChR M1 (Homo sapiens, UniProt P11229)
Test: In vitro cellular calcium flux assay, positive allosteric modulation of mAChR M1
Assay type: cell-based
Settings: not given
In short: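 Baby hamster kidney cells stably expressing human mAChR M1, loaded with Calcium 4 dye in HBSS/20 mM HEPES/2.5 mM probenecid for 30 min at 37 °C. An 11-point 1-in-3 compound dilution series was added and calcium rise read as fluorescence; positive allosteric modulator pEC50 and antagonist pIC50 derived.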

Sequence of mAChR M1 (P11229 whole entry, looked up): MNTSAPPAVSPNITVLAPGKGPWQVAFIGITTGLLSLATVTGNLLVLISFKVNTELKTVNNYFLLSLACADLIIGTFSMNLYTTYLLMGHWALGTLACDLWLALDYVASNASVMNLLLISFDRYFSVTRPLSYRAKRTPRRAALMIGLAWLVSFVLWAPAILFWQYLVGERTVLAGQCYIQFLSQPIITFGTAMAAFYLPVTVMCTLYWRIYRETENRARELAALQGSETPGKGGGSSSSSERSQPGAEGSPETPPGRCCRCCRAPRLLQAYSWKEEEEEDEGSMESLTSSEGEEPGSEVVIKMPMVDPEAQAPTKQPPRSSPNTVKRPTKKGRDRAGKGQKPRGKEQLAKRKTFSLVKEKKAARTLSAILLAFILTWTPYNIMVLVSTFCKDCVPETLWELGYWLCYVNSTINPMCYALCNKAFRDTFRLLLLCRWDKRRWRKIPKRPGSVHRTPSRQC

| SMILES | EC50 [nM] |
| --- | --- |
| O=C(N[C@@H]1CCOC[C@H]1O)c1cn(Cc2cccc(F)c2)c2c(Cl)ccnc12 (single isomer, unassigned) [Example 86, 7-Chloro-1-(3-fluorobenzyl)-N-(trans-3-hydroxytetrahydro-2H-pyran-4-yl)-1H-pyrrolo[3,2-b]pyridine-3-carboxamide] | 25.1 |

Same assay, conditions: BHK cells expressing mAChR M1; EC20 carbachol; Examples 76-80 and 82-89 slightly modified procedure

| SMILES | pEC50 for positive allosteric modulation |
| --- | --- |
| O=C(N[C@H]1CCCC[C@@H]1O)c1cn(Cc2cccc(F)c2)c2cccnc12 [Example 4, 1-(3-Fluorobenzyl)-N-((1S,2S)-2-hydroxycyclohexyl)-1H-pyrrolo[3,2-b]pyridine-3-carboxamide] | 6.8 |
| Cc1ccnc2c(C(=O)N[C@H]3CCCC[C@@H]3O)cn(Cc3cc(F)cc(F)c3)c12 [Example 101, 1-(3,5-difluorobenzyl)-N-((1S,2S)-2-hydroxycyclohexyl)-7-methyl-1H-pyrrolo[3,2-b]pyridine-3-carboxamide] | 7.0 |
| Cc1ccnc(Cn2cc(C(=O)N[C@H]3CCCC[C@@H]3O)c3nccc(Cl)c32)c1 [Example 80, 7-Chloro-N-((1S,2S)-2-hydroxycyclohexyl)-1-((4-methylpyridin-2-yl)methyl)-1H-pyrrolo[3,2-b]pyridine-3-carboxamide] | 7.1 |
| O=C(N[C@H]1CCCC[C@@H]1O)c1cn(Cc2ccc(Cl)cc2)c2cccnc12 [Example 23, 1-(4-Chlorobenzyl)-N-((1S,2S)-2-hydroxycyclohexyl)-1H-pyrrolo[3,2-b]pyridine-3-carboxamide] | 6.6 |
| CN1CCC(NC(=O)c2cn(Cc3ccc(F)cc3)c3cccnc23)CC1 [Example 31, 1-(4-Fluorobenzyl)-N-(1-methylpiperidin-4-yl)-1H-pyrrolo[3,2-b]pyridine-3-carboxamide] | 6.5 |
| O=C(N[C@H]1CCCC[C@@H]1O)c1cn(Cc2ccc(F)cc2F)c2cccnc12 [Example 24, 1-(2,4-Difluorobenzyl)-N-((1S,2S)-2-hydroxycyclohexyl)-1H-pyrrolo[3,2-b]pyridine-3-carboxamide] | 6.5 |
| O=C(N[C@H]1CCCC[C@@H]1O)c1cn(Cc2ccc(F)cc2)c2c(Cl)ccnc12 [Example 14, 7-Chloro-1-(4-fluorobenzyl)-N-((1S,2S)-2-hydroxycyclohexyl)-1H-pyrrolo[3,2-b]pyridine-3-carboxamide] | 7.3 |
| Cc1cccc(Cn2cc(C(=O)N[C@H]3CCCC[C@@H]3O)c3nccc(Cl)c32)n1 [Example 16, 7-Chloro-N-((1S,2S)-2-hydroxycyclohexyl)-1-((6-methylpyridin-2-yl)methyl)-1H-pyrrolo[3,2-b]pyridine-3-carboxamide] | 6.5 |
| O=C(NC1(CO)CCCC1)c1cn(Cc2ccc(F)cc2)c2cccnc12 [Example 21, 1-(4-Fluorobenzyl)-N-(1-(hydroxymethyl)cyclopentyl)-1H-pyrrolo[3,2-b]pyridine-3-carboxamide] | 5.7 |
| O=C(N[C@H]1CCCC[C@@H]1O)c1cn(Cc2cccc(F)c2F)c2c(Cl)ccnc12 [Example 15, 7-Chloro-1-(2,3-difluorobenzyl)-N-((1S,2S)-2-hydroxycyclohexyl)-1H-pyrrolo[3,2-b]pyridine-3-carboxamide] | 7.0 |
| Cc1ccc(Cn2cc(C(=O)N[C@H]3CCCC[C@@H]3O)c3nccc(Cl)c32)cn1 [Example 62, 7-Chloro-N-((1S,2S)-2-hydroxycyclohexyl)-1-((6-methylpyridin-3-yl)methyl)-1H-pyrrolo[3,2-b]pyridine-3-carboxamide] | 7.4 |
| COc1ccc(Cn2cc(C(=O)N[C@H]3CCCC[C@@H]3O)c3nccc(Cl)c32)cn1 [Example 68, 7-Chloro-N-((1S,2S)-2-hydroxycyclohexyl)-1-((6-methoxypyridin-3-yl)methyl)-1H-pyrrolo[3,2-b]pyridine-3-carboxamide] | 7.7 |
| Cc1ccc(Cn2cc(C(=O)N[C@H]3CCCC[C@@H]3O)c3ncccc32)c(F)c1 [Example 97, 1-(2-fluoro-4-methylbenzyl)-N-((1S,2S)-2-hydroxycyclohexyl)-1H-pyrrolo[3,2-b]pyridine-3-carboxamide] | 6.9 |
| Cc1ccc(Cn2cc(C(=O)N[C@H]3CCCC[C@@H]3O)c3nccc(C)c32)cc1 [Example 63, N-((1S,2S)-2-Hydroxycyclohexyl)-7-methyl-1-(4-methylbenzyl)-1H-pyrrolo[3,2-b]pyridine-3-carboxamide] | 7.6 |
| O=C(NC1CCC(F)(F)CC1)c1cn(Cc2ccc(-n3cccn3)cc2)c2cccnc12 [Example 51, 1-(4-(1H-Pyrazol-1-yl)benzyl)-N-(4,4-difluorocyclohexyl)-1H-pyrrolo[3,2-b]pyridine-3-carboxamide] | 6.3 |
| O=C(N[C@H]1CCCC[C@@H]1O)c1cn(Cc2cccc(C(F)(F)F)c2)c2cccnc12 [Example 95, N-((1S,2S)-2-hydroxycyclohexyl)-1-(3-(trifluoromethyl)benzyl)-1H-pyrrolo[3,2-b]pyridine-3-carboxamide] | 6.1 |
| O=C(NC1CCNCC1)c1cn(Cc2ccc(F)cc2)c2cccnc12 [Example 30, 1-(4-Fluorobenzyl)-N-(piperidin-4-yl)-1H-pyrrolo[3,2-b]pyridine-3-carboxamide] | 6.5 |
| COc1ccnc2c(C(=O)N[C@H]3CCCC[C@@H]3O)cn(Cc3cccc(F)c3F)c12 [Example 104, 1-(2,3-difluorobenzyl)-N-((1S,2S)-2-hydroxycyclohexyl)-7-methoxy-1H-pyrrolo[3,2-b]pyridine-3-carboxamide] | 6.3 |
| COc1ccc(Cn2cc(C(=O)N[C@H]3CCCC[C@@H]3O)c3nccc(OC)c32)cc1 [Example 105, N-((1S,2S)-2-hydroxycyclohexyl)-7-methoxy-1-(4-methoxybenzyl)-1H-pyrrolo[3,2-b]pyridine-3-carboxamide] | 6.7 |
| Cc1nc(Cn2cc(C(=O)N[C@H]3CCCC[C@@H]3O)c3ncccc32)cs1 [Example 7, N-((1S,2S)-2-Hydroxycyclohexyl)-1-((2-methylthiazol-4-yl)methyl)-1H-pyrrolo[3,2-b]pyridine-3-carboxamide] | 5.9 |
| Cc1cccc(Cn2cc(C(=O)N[C@H]3CCCC[C@@H]3O)c3ncccc32)c1 [Example 96, N-((1S,2S)-2-hydroxycyclohexyl)-1-(3-methylbenzyl)-1H-pyrrolo[3,2-b]pyridine-3-carboxamide] | 6.7 |
| O=C(N[C@H]1CCCC[C@@H]1O)c1cn(Cc2ccccc2F)c2cccnc12 [Example 22, 1-(2-Fluorobenzyl)-N-((1S,2S)-2-hydroxycyclohexyl)-1H-pyrrolo[3,2-b]pyridine-3-carboxamide] | 6.5 |
| O=C(N[C@H]1CCCC[C@@H]1O)c1cn(Cc2cc(F)cc(F)c2)c2cccnc12 [Example 2, 1-(3,5-Difluorobenzyl)-N-((1S,2S)-2-hydroxycyclohexyl)-1H-pyrrolo[3,2-b]pyridine-3-carboxamide] | 6.7 |
| Cc1cc(Cn2cc(C(=O)N[C@H]3CCCC[C@@H]3O)c3nccc(Cl)c32)ccn1 [Example 78, 7-Chloro-N-((1S,2S)-2-hydroxycyclohexyl)-1-((2-methylpyridin-4-yl)methyl)-1H-pyrrolo[3,2-b]pyridine-3-carboxamide] | 7.8 |
| O=C(N[C@H]1CCOC[C@@H]1O)c1cn(Cc2ccc(F)cc2)c2c(Cl)ccnc12 [Example 88, 7-Chloro-1-(4-fluorobenzyl)-N-((3R,4S)-3-hydroxytetrahydro-2H-pyran-4-yl)-1H-pyrrolo[3,2-b]pyridine-3-carboxamide] | 6.4 |
